Patent publication US6355799B1, “Substituted benzene compounds, process for their preparation, and herbicidal and defoliant compositions containing them” (ISK Americas Incorporated, priority 1997, dated 2002)

Key:
Format in all cases: in vivo
[1] = tested on: redroot pigweed (Amaranthus retroflexus, AMARE); assay: Pre-emerge test, greenhouse herbicide activity screening; settings: for phytotoxicity rating AMARE: pre-emerge, 14 days after application, rating scale 0-100; for Pre-emerge Herbicidal Activity, phytotoxicity rating (0-100), AMARE: rated 14 days after application, 0 = no damage, 100 = complete death
Summary of the method: (§1)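 Compounds in acetone were track-sprayed at 187 l/ha, 15–1000 g ai/ha, onto sandy loam pots. Pre-emerge seeds were sown one day before spraying, with surface watering afterwards. Post-emerge plants were at the 2–3 leaf stage and sprayed with 0.25% v/v non-ionic surfactant. Injury was rated 0–100 at 14 days.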

[2] = tested on: barnyardgrass (Echinochloa crus-galli, ECHCG); assay: Post-emerge test, greenhouse herbicide activity screening; settings: post-emerge, 14 days after application, rating scale 0-100
Summary of the method: as §1

[3] = tested on: lambsquarters (Chenopodium album, CHEAL); assay: as above; settings: post-emerge, 14 days after application, rating scale 0-100
Summary of the method: as §1

[4] = tested on: ivyleaf morningglory (Ipomoea hederacea, IPOHE); assay: as above; settings: post-emerge, 14 days after application, rating scale 0-100
Summary of the method: as §1

[5] = tested on: johnsongrass (Sorghum halepense, SORHA); assay: as above; settings: post-emerge, 14 days after application, rating scale 0-100
Summary of the method: as §1

[6] = tested on: redroot pigweed (Amaranthus retroflexus, AMARE); assay: as above; settings: post-emerge, 14 days after application
Summary of the method: as §1

[7] = tested on: large crabgrass (Digitaria sanguinalis, DIGSA); assay: as above; settings: post-emerge, 14 days after application, rating scale 0-100
Summary of the method: as §1

[8] = tested on: sicklepod (Cassia obtusifolia, CASOB); assay: as above; settings: post-emerge, 14 days after application, rating scale 0-100
Summary of the method: as §1

[9] = tested on: green foxtail (Setaria viridis, SETVI); assay: as above; settings: post-emerge, 14 days after application, rating scale 0-100
Summary of the method: as §1

[10] = tested on: velvetleaf (Abutilon theophrasti, ABUTH); assay: as above; settings: post-emerge, 14 days after application, rating scale 0-100
Summary of the method: as §1

[11] = tested on: upland rice (Oryza sp., var. Tebonnet, RICE); assay: Pre-emerge test, crop safety; settings: for phytotoxicity rating RICE: pre-emerge, 14 days after application, rating scale 0-100; for Pre-emerge phytotoxicity rating (0-100), crop damage, RICE: rated 14 days after application, 0 = no damage, 100 = complete death
Summary of the method: (§2)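 Plants grown in 10 cm pots of sandy loam mix received acetone-dissolved compounds through a moving flat-fan nozzle. Doses ranged from 15 to 1000 g ai/ha. Pre-emerge pots were seeded one day earlier, post-emerge pots 8–21 days earlier. Fourteen days on, each pot was graded 0–100 for damage.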

[12] = tested on: field corn (Zea mays L., var. Dekalb 535, CORN); assay: Pre-emerge test, crop safety; settings: for phytotoxicity rating CORN: pre-emerge, 14 days after application, rating scale 0-100; for Pre-emerge phytotoxicity rating (0-100), crop damage, CORN: rated 14 days after application, 0 = no damage, 100 = complete death
Summary of the method: as §2

[13] = tested on: upland rice (Oryza sp., var. Tebonnet, RICE); assay: Post-emerge test, crop safety; settings: post-emerge, 14 days after application, rating scale 0-100
Summary of the method: (§3)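 Compounds in acetone were track-sprayed at 15-1000 g ai/ha (187 l/ha) on sandy loam pots: pre-emerge one day after seeding, post-emerge at 2-3 leaf stage with 0.25% v/v non-ionic surfactant. Phytotoxicity was rated 14 days later on a 0 (no damage) to 100 (complete death) scale.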

[14] = tested on: field corn (Zea mays L., var. Dekalb 535, CORN); assay: Post-emerge test, crop safety; settings: post-emerge, 14 days after application, rating scale 0-100
Summary of the method: as §3

[15] = tested on: barnyardgrass (Echinochloa crus-galli, ECHCG); assay: Pre-emerge test, greenhouse herbicide activity screening; settings: for phytotoxicity rating ECHCG: pre-emerge, 14 days after application, rating scale 0-100; for Pre-emerge Herbicidal Activity, phytotoxicity rating (0-100), ECHCG: rated 14 days after application, 0 = no damage, 100 = complete death
Summary of the method: as §3

[16] = tested on: lambsquarters (Chenopodium album, CHEAL); assay: as above; settings: for phytotoxicity rating CHEAL: pre-emerge, 14 days after application, rating scale 0-100; for Pre-emerge Herbicidal Activity, phytotoxicity rating (0-100), CHEAL: rated 14 days after application, 0 = no damage, 100 = complete death
Summary of the method: as §3

[17] = tested on: ivyleaf morningglory (Ipomoea hederacea, IPOHE); assay: as above; settings: for phytotoxicity rating IPOHE: pre-emerge, 14 days after application, rating scale 0-100; for Pre-emerge Herbicidal Activity, phytotoxicity rating (0-100), IPOHE: rated 14 days after application, 0 = no damage, 100 = complete death
Summary of the method: as §3

[18] = tested on: johnsongrass (Sorghum halepense, SORHA); assay: as above; settings: for phytotoxicity rating SORHA: pre-emerge, 14 days after application, rating scale 0-100; for Pre-emerge Herbicidal Activity, phytotoxicity rating (0-100), SORHA: rated 14 days after application, 0 = no damage, 100 = complete death
Summary of the method: as §3

[19] = tested on: large crabgrass (Digitaria sanguinalis, DIGSA); assay: as above; settings: for phytotoxicity rating DIGSA: pre-emerge, 14 days after application, rating scale 0-100; for Pre-emerge Herbicidal Activity, phytotoxicity rating (0-100), DIGSA: rated 14 days after application, 0 = no damage, 100 = complete death
Summary of the method: as §3

[20] = tested on: sicklepod (Cassia obtusifolia, CASOB); assay: as above; settings: for phytotoxicity rating CASOB: pre-emerge, 14 days after application, rating scale 0-100; for Pre-emerge Herbicidal Activity, phytotoxicity rating (0-100), CASOB: rated 14 days after application, 0 = no damage, 100 = complete death
Summary of the method: as §3

[21] = tested on: green foxtail (Setaria viridis, SETVI); assay: as above; settings: for phytotoxicity rating SETVI: pre-emerge, 14 days after application, rating scale 0-100; for Pre-emerge Herbicidal Activity, phytotoxicity rating (0-100), SETVI: rated 14 days after application, 0 = no damage, 100 = complete death
Summary of the method: as §3

[22] = tested on: velvetleaf (Abutilon theophrasti, ABUTH); assay: as above; settings: for phytotoxicity rating ABUTH: pre-emerge, 14 days after application, rating scale 0-100; for Pre-emerge Herbicidal Activity, phytotoxicity rating (0-100), ABUTH: rated 14 days after application, 0 = no damage, 100 = complete death
Summary of the method: as §3

[23] = 250 g ai/ha, rating scale 0-100

## COc1cc(Cl)cc(Cl)c1-n1c(=O)cc(C(F)(F)F)n(C)c1=O [16-2]
[1]; 63 g ai/ha
  phytotoxicity rating AMARE: 40
[1]; 250 g ai/ha
  phytotoxicity rating AMARE: 100
[2]; 63 g ai/ha
  Post-emerge Herbicidal Activity ECHCG (phytotoxicity rating): 0
[2]; 250 g ai/ha
  Post-emerge Herbicidal Activity ECHCG (phytotoxicity rating): 0
[3]; 63 g ai/ha
  Post-emerge Herbicidal Activity CHEAL (phytotoxicity rating): 30
[3]; 250 g ai/ha
  Post-emerge Herbicidal Activity CHEAL (phytotoxicity rating): 70
[4]; 63 g ai/ha
  Post-emerge Herbicidal Activity IPOHE (phytotoxicity rating): 0
[4]; 250 g ai/ha
  Post-emerge Herbicidal Activity IPOHE (phytotoxicity rating): 0
[5]; 63 g ai/ha
  Post-emerge Herbicidal Activity SORHA (phytotoxicity rating): 0
[5]; 250 g ai/ha
  Post-emerge Herbicidal Activity SORHA (phytotoxicity rating): 0
[6]; 63 g ai/ha, rating scale 0-100 (0 no damage, 100 complete death)
  Post-emerge Herbicidal Activity AMARE (phytotoxicity rating): 60
[6]; [23]
  Post-emerge Herbicidal Activity AMARE (phytotoxicity rating): 60
[7]; 63 g ai/ha
  Post-emerge Herbicidal Activity DIGSA (phytotoxicity rating): 0
[7]; 250 g ai/ha
  Post-emerge Herbicidal Activity DIGSA (phytotoxicity rating): 0
[8]; 63 g ai/ha
  Post-emerge Herbicidal Activity CASOB (phytotoxicity rating): 0
[8]; 250 g ai/ha
  Post-emerge Herbicidal Activity CASOB (phytotoxicity rating): 10
[9]; 63 g ai/ha
  Post-emerge Herbicidal Activity SETVI (phytotoxicity rating): 0
[9]; 250 g ai/ha
  Post-emerge Herbicidal Activity SETVI (phytotoxicity rating): 0
[10]; 63 g ai/ha
  Post-emerge Herbicidal Activity ABUTH (phytotoxicity rating): 40
[10]; 250 g ai/ha
  Post-emerge Herbicidal Activity ABUTH (phytotoxicity rating): 70
[11]; 63 g ai/ha
  phytotoxicity rating RICE: 0
[11]; 250 g ai/ha
  phytotoxicity rating RICE: 0
[12]; 63 g ai/ha
  phytotoxicity rating CORN: 0
[12]; 250 g ai/ha
  phytotoxicity rating CORN: 0
[13]; 63 g ai/ha
  Post-emerge Herbicidal Activity RICE (crop damage rating): 0
[13]; 250 g ai/ha
  Post-emerge Herbicidal Activity RICE (crop damage rating): 20
[14]; 63 g ai/ha
  Post-emerge Herbicidal Activity CORN (crop damage rating): 0
[14]; 250 g ai/ha
  Post-emerge Herbicidal Activity CORN (crop damage rating): 10
[15]; 63 g ai/ha
  phytotoxicity rating ECHCG: 0
[15]; 250 g ai/ha
  phytotoxicity rating ECHCG: 10
[16]; 63 g ai/ha
  phytotoxicity rating CHEAL: 80
[16]; 250 g ai/ha
  phytotoxicity rating CHEAL: 100
[17]; 63 g ai/ha
  phytotoxicity rating IPOHE: 10
[17]; 250 g ai/ha
  phytotoxicity rating IPOHE: 50
[18]; 63 g ai/ha
  phytotoxicity rating SORHA: 0
[18]; 250 g ai/ha
  phytotoxicity rating SORHA: 30
[19]; 63 g ai/ha
  phytotoxicity rating DIGSA: 0
[19]; 250 g ai/ha
  phytotoxicity rating DIGSA: 50
[20]; 63 g ai/ha
  phytotoxicity rating CASOB: 0
[20]; 250 g ai/ha
  phytotoxicity rating CASOB: 60
[21]; 63 g ai/ha
  phytotoxicity rating SETVI: 10
[21]; 250 g ai/ha
  phytotoxicity rating SETVI: 60
[22]; 63 g ai/ha
  phytotoxicity rating ABUTH: 75
[22]; 250 g ai/ha
  phytotoxicity rating ABUTH: 100

## Cn1c(C(F)(F)F)cc(=O)n(-c2c(F)cc(Cl)c(OCC#N)c2NC(=O)CCc2ccccc2)c1=O [2-87]
[1]; 63 g ai/ha
  Pre-emerge Herbicidal Activity, phytotoxicity rating (0-100), AMARE: 100
[1]; 250 g ai/ha
  Pre-emerge Herbicidal Activity, phytotoxicity rating (0-100), AMARE: 100
[2]; 63 g ai/ha
  phytotoxicity rating ECHCG: 10
[2]; 250 g ai/ha
  phytotoxicity rating ECHCG: 50
[3]; 63 g ai/ha
  phytotoxicity rating CHEAL: 80
[3]; 250 g ai/ha
  phytotoxicity rating CHEAL: 90
[4]; 63 g ai/ha
  phytotoxicity rating IPOHE: 100
[4]; 250 g ai/ha
  phytotoxicity rating IPOHE: 100
[5]; 63 g ai/ha
  phytotoxicity rating SORHA: 10
[5]; 250 g ai/ha
  phytotoxicity rating SORHA: 50
[6]; 63 g ai/ha, rating scale 0-100
  phytotoxicity rating AMARE: 100
[6]; [23]
  phytotoxicity rating AMARE: 100
[7]; 63 g ai/ha
  phytotoxicity rating DIGSA: 10
[7]; 250 g ai/ha
  phytotoxicity rating DIGSA: 50
[8]; 63 g ai/ha
  phytotoxicity rating CASOB: 40
[8]; 250 g ai/ha
  phytotoxicity rating CASOB: 100
[9]; 63 g ai/ha
  phytotoxicity rating SETVI: 30
[9]; 250 g ai/ha
  phytotoxicity rating SETVI: 40
[10]; 63 g ai/ha
  phytotoxicity rating ABUTH: 100
[10]; 250 g ai/ha
  phytotoxicity rating ABUTH: 100
[11]; 63 g ai/ha
  Pre-emerge phytotoxicity rating (0-100), crop damage, RICE: 40
[11]; 250 g ai/ha
  Pre-emerge phytotoxicity rating (0-100), crop damage, RICE: 90
[12]; 63 g ai/ha
  Pre-emerge phytotoxicity rating (0-100), crop damage, CORN: 5
[12]; 250 g ai/ha
  Pre-emerge phytotoxicity rating (0-100), crop damage, CORN: 75
[13]; 63 g ai/ha
  phytotoxicity rating RICE: 40
[13]; 250 g ai/ha
  phytotoxicity rating RICE: 75
[14]; 63 g ai/ha
  phytotoxicity rating CORN: 30
[14]; 250 g ai/ha
  phytotoxicity rating CORN: 80
[15]; 63 g ai/ha
  Pre-emerge Herbicidal Activity, phytotoxicity rating (0-100), ECHCG: 60
[15]; 250 g ai/ha
  Pre-emerge Herbicidal Activity, phytotoxicity rating (0-100), ECHCG: 90
[16]; 63 g ai/ha
  Pre-emerge Herbicidal Activity, phytotoxicity rating (0-100), CHEAL: 100
[16]; 250 g ai/ha
  Pre-emerge Herbicidal Activity, phytotoxicity rating (0-100), CHEAL: 100
[17]; 63 g ai/ha
  Pre-emerge Herbicidal Activity, phytotoxicity rating (0-100), IPOHE: 90
[17]; 250 g ai/ha
  Pre-emerge Herbicidal Activity, phytotoxicity rating (0-100), IPOHE: 100
[18]; 63 g ai/ha
  Pre-emerge Herbicidal Activity, phytotoxicity rating (0-100), SORHA: 50
[18]; 250 g ai/ha
  Pre-emerge Herbicidal Activity, phytotoxicity rating (0-100), SORHA: 85
[19]; 63 g ai/ha
  Pre-emerge Herbicidal Activity, phytotoxicity rating (0-100), DIGSA: 80
[19]; 250 g ai/ha
  Pre-emerge Herbicidal Activity, phytotoxicity rating (0-100), DIGSA: 100
[20]; 63 g ai/ha
  Pre-emerge Herbicidal Activity, phytotoxicity rating (0-100), CASOB: 100
[20]; 250 g ai/ha
  Pre-emerge Herbicidal Activity, phytotoxicity rating (0-100), CASOB: 100
[21]; 63 g ai/ha
  Pre-emerge Herbicidal Activity, phytotoxicity rating (0-100), SETVI: 90
[21]; 250 g ai/ha
  Pre-emerge Herbicidal Activity, phytotoxicity rating (0-100), SETVI: 100
[22]; 63 g ai/ha
  Pre-emerge Herbicidal Activity, phytotoxicity rating (0-100), ABUTH: 100
[22]; 250 g ai/ha
  Pre-emerge Herbicidal Activity, phytotoxicity rating (0-100), ABUTH: 100
